Results reported in patent publication US9630941B2 (priority 2008, dated 2017).

What was measured:
[1] = Maximum amount dissolved in topical formulations; assay type: physicochemical
[2] = In vivo ocular bioavailability of THC after topical formulations
[3] = Bioreversion: plasma stability, porcine plasma; assay type: in vitro ADME
[4] = Chemical stability pH dependent at 25° C.; assay type: physicochemical
Description: B. Chemical Stability pH Dependent at 25° C.

[5] = Plasma THC after rectal suppository (PEG 1000) in rat; details: polyethylene glycol 1000 base, dose equivalent to 1 mg THC
[6] = system: intraocular pressure (IOP) induced model of glaucoma; assay: Rabbit glaucoma model, IOP lowering after topical instillation; details: for Peak IOP drop, IOP as % of the baseline IOP: 50 μL topical
[7] = Plasma THC from HME buccal patches in swine model; assay type: in vivo
Description: THC was used as control formulation. Plasma was sampled from each animal at predetermined times and the amount of THC in the plasma was determined.
FIG. 20: Plasma THC concentrations as a function of time from THC-Val-HS loaded HME buccal patches. Data represents the mean value from 4 pigs. The animals were maintained under anesthesia for the first 4 hours and were then allowed to come out of anesthesia and given access to food and water.
A dose dependent plasma concentration time profile was then evaluated.
Plasma THC concentrations as a function of time and dose from THC-Val-HS loaded HME patches. Data represents the mean value. The animals for maintained under anesthesia for the first 4 hours and were then allowed to come out of anesthesia and given access to food and water.

[8] = Control (IPBS) stability for the buccal homogenate study; assay type: physicochemical
Description: (§1) b. Porcine Buccal Tissue Homogenate Stability
(§2) Protein Concentration 2 mg/ml

[9] = Thermal stability, 120° C. for 10 min; assay type: physicochemical
Description: C. Thermal Stability—120° C. for 10 min.

[10] = Porcine buccal tissue homogenate stability; assay type: in vitro ADME; details: protein concentration 2 mg/ml
Description: as §1, §2

[11] = Stability of THC-Val-HS HME transmucosal patch; details: for Assay (as a % of theoretical amount): HME transmucosal patch
[12] = Aqueous solubility, pH dependent; assay type: physicochemical
[13] = THC-Val-HS 0.25% w/v in 0.1% Cremophor RH 40 + 0.02% BAK + 0.1% EDTA + 0.5% HPMC, 1 Hour
[14] = THC-Val-HS 0.26% w/v in 2.5% HPβCD + 0.5% HPMC, 1 Hour
[15] = THC-Val-HS 0.26% w/v in 2.5% HPβCD + 0.5% HPMC, 3 Hours
[16] = THC-Val-HS 10% w/w Ocular Film, 1 Hour
[17] = THC-Val-HS 10% w/w Ocular Film, 3 Hours

For `CCCCCc1cc(OC(=O)C(NC(=O)CCC(=O)O)C(C)C)c2c(c1)OC(C)(C)C1CCC(C)=CC21` (stereo not drawn) [THC-Valinate-HS (15), THC-valinate-hemisuccinate], the “maximum amount that could be dissolved” value ([1]; Tocrisolve emulsion) was 0.97 % w/v, the “maximum amount that could be dissolved” value ([1]; micellar solution: HPβCD 15% + Cremophor RH 40 0.25% + BAK 0.01% + EDTA 0.1% + HPMC 0.5% w/v) was 0.89 % w/v and the “THC concentrations in aqueous humor, iris-ciliary bodies / anterior segment ocular tissues” value ([2]; 1 hour post topical application) was “significant THC concentrations”. For the same compound, the “Total THC concentration, Aqueous Humor” value [2, 13] was 62.1 ± 12.6 ng/100 μL, the “Total THC concentration, Cornea” value [2, 13] was 1191.7 ± 231.1 ng/50 mg Tissue and the “Total THC concentration, Iris-Cilliary Body” value [2, 13] was 51.44 ± 19.5 ng/50 mg Tissue. The “Total THC concentration, Sclera” value [2, 13] was 913.4 ± 432.9 ng/250 mg Tissue, the “Total THC concentration, Aqueous Humor” value [2, 14] was 69.4 ± 16.7 ng/100 μL and the “Total THC concentration, Cornea” value [2, 14] was 1677.1 ± 172.1 ng/50 mg Tissue. The “Total THC concentration, Iris-Cilliary Body” value [2, 14] was 65.8 ± 15.9 ng/50 mg Tissue, the “Total THC concentration, Sclera” value [2, 14] was 882.2 ± 185.8 ng/250 mg Tissue and the “Total THC concentration, Aqueous Humor” value [2, 15] was 38.3 ± 10.2 ng/100 μL. The “Total THC concentration, Cornea” value [2, 15] was 1142.3 ± 415.9 ng/50 mg Tissue, the “Total THC concentration, Iris-Cilliary Body” value [2, 15] was 57.9 ± 16.1 ng/50 mg Tissue and the “Total THC concentration, Sclera” value [2, 15] was 241.8 ± 106.6 ng/250 mg Tissue. For the same compound, the “Total THC concentration, Aqueous Humor” value [2, 16] was 61.3 ± 32.1 ng/100 μL, the “Total THC concentration, Cornea” value [2, 16] was 1634.5 ± 756.5 ng/50 mg Tissue and the “Total THC concentration, Iris-Cilliary Body” value [2, 16] was 86.03 ± 38.2 ng/50 mg Tissue. For the same compound, the “Total THC concentration, Retina-Choroid” value [2, 16] was 17.02 ± 8.01 ng/50 mg Tissue, the “Total THC concentration, Sclera” value [2, 16] was 1891.2 ± 771.5 ng/250 mg Tissue and the “Total THC concentration, Aqueous Humor” value [2, 17] was 29.1 ± 14.2 ng/100 μL. For the same compound, the “Total THC concentration, Cornea” value [2, 17] was 1043.4 ± 614.4 ng/50 mg Tissue, the “Total THC concentration, Iris-Cilliary Body” value [2, 17] was 104.2 ± 41.2 ng/50 mg Tissue and the “Total THC concentration, Retina-Choroid” value [2, 17] was 11.9 ± 4.9 ng/50 mg Tissue. For the same compound, the “Total THC concentration, Sclera” value [2, 17] was 812.6 ± 501.4 ng/250 mg Tissue, the K [3] was 85.54 ± 3.74 ×10^−2 min^−1 and the T1/2 [3] was 8.11 ± 0.35 min. For the same compound, the “First order rate constant” value ([4]; Buffer pH 5.0, 25° C.) was “Stable”, the “First order rate constant” value ([4]; Buffer pH 7.0, 25° C.) was “Stable” and the “First order rate constant” value ([4]; Buffer pH 9.0, 25° C.) was “Stable”. The “First order rate constant” value ([4]; Water, 25° C.) was “Stable”, the “Blood levels after rectal administration” value [5] was “significant blood levels” and the “Peak IOP drop, IOP as % of the baseline IOP” value ([6]; Tocrisolve emulsion, 0.97% w/v THC-Val-HS) was 53±3%. For the same compound, the “IOP-time profile compared with THC” value ([6]; at a lower dose) was “significantly better than that of THC”, the “Duration of action (time taken for IOP to return to 90% of baseline)” value ([6]; both formulations) was “about 4 hours” and the “time to peak IOP drop after instilling” value ([6]; micellar solution and Tocrisolve emulsion) was no more than 90 min. For the same compound, the “Peak IOP drop, IOP as % of the baseline IOP” value ([6]; micellar solution, 0.89% w/v THC-Val-HS) was 62±3%, the “Dose dependence of THC blood levels from HME patches” value ([7]; swine, 5, 10, 20 mg formulations) was “dose dependant” and the “11-OH-THC or carboxy metabolite THC-COOH in plasma” value ([7]; swine, buccal patch) was “not seen”. For the same compound, the “THC levels in plasma from transmucosal HME patches” value ([7]; swine, buccal patch, listed as THC-Val-HS) was “Significant plasma THC levels were observed”, the K [8] was 0.40 ± 0.02 ×10^−3 min^−1 and the “Drug loading (%)” value [9] was 112.21 ± 4.99%. The “CBN content of the sample after heating” value ([9]; 120° C. for 10 min) was 0 µg, the “Drug remaining” value ([9]; 120° C. for 10 min) was 1350.13 ± 387.10 µg and the “THC content of the sample after heating” value ([9]; 120° C. for 10 min) was 80.26 ± 8.59 µg. The “Drug remaining (%)” value ([9]; 120° C. for 10 min, % of initial) was “(96.29 ± 3.89) %”, the “CBN content of the sample, initial” value ([9]; before heating) was 0 µg and the “Initial, μg (drug itself)” value ([9]; before heating) was 1411.49 ± 459.10 µg. The “THC content of the sample, initial” value ([9]; before heating) was 96.52 ± 3.72 µg, the K [10] was 2.96 ± 0.19 ×10^−3 min^−1 and the T1/2 [10] was 23.43 ± 1.49 min. The “Assay (as a % of theoretical amount)” value ([11]; 1 Month, 25° C./60% RH) was 110.6 ± 0.1%, the “Assay (as a % of theoretical amount)” value ([11]; 1 Month, 40° C./75% RH) was 80.9 ± 3.9% and the “Assay (as a % of theoretical amount)” value ([11]; 3 Month, 25° C./60% RH) was 108.3 ± 4.6%. The “Assay (as a % of theoretical amount)” value ([11]; Initial) was 108.4 ± 0.2%, the “Stability in the hot-melt-extruded formulation” value ([11]; three month stability data) was “stable” and the “Aqueous Solubility” value ([12]; H20) was 8.50 ± 6.00 µg/mL. The “Aqueous Solubility” value ([12]; Water) was 16.54 ± 11.69 µM, the “Aqueous Solubility” value ([12]; pH 1.2) was 0.06 ± 0.03 µg/mL and the “Aqueous Solubility” value ([12]; pH 1.2, listed as THC-Valine-HS) was 0.12 ± 0.06 µM. For the same compound, the “Aqueous Solubility” value ([12]; pH 2) was 0.09 ± 0.03 µg/mL, the “Aqueous Solubility” value ([12]; pH 2, listed as THC-Valine-HS) was 0.17 ± 0.06 µM and the “Aqueous Solubility” value ([12]; pH 5) was 0.35 ± 0.02 µg/mL. For the same compound, the “Aqueous Solubility” value ([12]; pH 5, listed as THC-Valine-HS) was 0.67 ± 0.04 µM, the “Aqueous Solubility” value ([12]; pH 6) was 12.74 ± 1.80 µg/mL and the “Aqueous Solubility” value ([12]; pH 6, listed as THC-Valine-HS) was 24.80 ± 3.51 µM. The “Aqueous Solubility” value ([12]; pH 7) was 155.67 ± 31.19 µg/mL, the “Aqueous Solubility” value ([12]; pH 7, listed as THC-Valine-HS) was 303.06 ± 60.72 µM and the “Aqueous Solubility” value ([12]; pH 8) was 117.04 ± 10.91 µg/mL. The “Aqueous Solubility” value ([12]; pH 8, listed as THC-Valine-HS) was 227.86 ± 21.24 µM, the “Aqueous Solubility” value ([12]; pH 9) was 0.02 ± 0.00 µg/mL and the “Aqueous Solubility” value ([12]; pH 9, listed as THC-Valine-HS) was 0.05 ± 0.00 µM.
